Where “and” joins values, the source holds several entries; their conditions need not be identical. Equal entries are not always repeated. Where two headings read alike, the source gives them in different places.
Experiments:
mTOR kinase = target: T1, mTOR kinase (Homo sapiens, UniProt P42345); assay: In vitro mTOR kinase assay, Test (a)(i) (AlphaScreen); format: biochemical
T1 construct: FLAG; made in house
Procedure: (a)(i) In Vitro mTOR Kinase Assay
A C-terminal truncation of mTOR encompassing amino acid residues 1362 to 2549 of mTOR (EMBL Accession No. L34075) was stably expressed as a FLAG-tagged fusion in HEK293 cells as described by Vilella-Bach et al., […], 1999, 274, 4266-4272. The HEK293 FLAG-tagged mTOR (1362-2549) stable cell line was routinely maintained at 37° C. with 5% CO2 up to a confluency of 70-90% in Dulbecco's modified Eagle's growth medium (DMEM; Invitrogen Limited, Paisley, UK Catalogue No. 41966-029) containing 10% heat-inactivated foetal calf serum (FCS; Sigma, Poole, Dorset, UK, Catalogue No. F0392), 1% L-glutamine (Gibco, Catalogue No. 25030-024) and 2 mg/ml Geneticin (G418 sulfate; Invitrogen Limited, UK Catalogue No. 10131-027). Following expression in the mammalian HEK293 cell line, expressed protein was purified using the FLAG epitope tag using standard purification techniques.
A 30 μl mixture of recombinant purified mTOR enzyme, 1 μM biotinylated peptide substrate (Biotin-Ahx-[…]NH2; Bachem UK Ltd), ATP (20 μM) and a buffer solution [comprising Tris-HCl pH7.4 buffer (50 mM), EGTA (0.1 mM), bovine serum albumin (0.5 mg/mL), DTT (1.25 mM) and manganese chloride (10 mM)] was agitated at room temperature for 90 minutes.
These assay solutions were incubated for 2 hours at room temperature.
Phosphorylated biotinylated peptide is formed in situ as a result of mTOR mediated phosphorylation. The phosphorylated biotinylated peptide that is associated with AlphaScreen Streptavidin donor beads forms a complex with the p70 S6 Kinase (T389) 1A5 Monoclonal Antibody that is associated with Alphascreen Protein A acceptor beads. […] Accordingly, the presence of mTOR kinase activity results in an assay signal. In the presence of an mTOR kinase inhibitor, signal strength is reduced.

p110α Type Ia human PI3K = target: T2, p110α Type Ia human PI3K (Homo sapiens, UniProt P42336); assay: In vitro PI3K enzyme assay, Test (b)(i) (AlphaScreen); format: biochemical; conditions: individual values, measured twice; read-out: IC50 versus p110α Type Ia human PI3K, Test (b)(i)
T2 construct: full length DNA of each of the p110α, p110β and p110δ Type Ia human PI3K p110 isoforms; 6-His; made in house
T2 sequence (P42336 whole entry, canonical isoform): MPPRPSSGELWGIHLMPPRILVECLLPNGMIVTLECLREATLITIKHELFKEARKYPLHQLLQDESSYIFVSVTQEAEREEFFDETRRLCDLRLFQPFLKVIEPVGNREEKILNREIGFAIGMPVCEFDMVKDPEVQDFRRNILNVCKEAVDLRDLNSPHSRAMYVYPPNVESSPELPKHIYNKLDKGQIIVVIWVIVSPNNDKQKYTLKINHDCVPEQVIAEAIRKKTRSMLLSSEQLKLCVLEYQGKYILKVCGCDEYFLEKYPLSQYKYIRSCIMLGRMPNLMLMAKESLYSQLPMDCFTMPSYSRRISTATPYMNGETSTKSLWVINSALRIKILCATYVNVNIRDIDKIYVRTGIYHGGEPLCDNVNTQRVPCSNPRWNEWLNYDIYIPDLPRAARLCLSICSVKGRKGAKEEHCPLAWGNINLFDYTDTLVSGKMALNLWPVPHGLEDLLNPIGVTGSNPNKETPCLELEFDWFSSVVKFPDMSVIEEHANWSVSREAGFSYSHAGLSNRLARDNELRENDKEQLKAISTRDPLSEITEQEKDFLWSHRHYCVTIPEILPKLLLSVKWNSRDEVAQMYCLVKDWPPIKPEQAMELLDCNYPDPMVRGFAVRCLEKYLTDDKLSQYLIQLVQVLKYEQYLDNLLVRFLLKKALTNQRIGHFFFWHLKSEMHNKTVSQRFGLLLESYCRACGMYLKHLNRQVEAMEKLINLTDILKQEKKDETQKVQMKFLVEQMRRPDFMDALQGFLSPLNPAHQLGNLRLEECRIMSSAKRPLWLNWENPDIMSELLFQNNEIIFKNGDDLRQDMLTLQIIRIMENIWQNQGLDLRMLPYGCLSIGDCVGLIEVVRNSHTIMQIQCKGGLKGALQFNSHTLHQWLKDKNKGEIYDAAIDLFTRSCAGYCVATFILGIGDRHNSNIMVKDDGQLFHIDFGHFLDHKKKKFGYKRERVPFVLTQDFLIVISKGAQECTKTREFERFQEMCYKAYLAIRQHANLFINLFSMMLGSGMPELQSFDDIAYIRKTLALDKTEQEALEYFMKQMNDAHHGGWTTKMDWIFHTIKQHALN
T2 sequence (P27986 whole entry partner, canonical isoform): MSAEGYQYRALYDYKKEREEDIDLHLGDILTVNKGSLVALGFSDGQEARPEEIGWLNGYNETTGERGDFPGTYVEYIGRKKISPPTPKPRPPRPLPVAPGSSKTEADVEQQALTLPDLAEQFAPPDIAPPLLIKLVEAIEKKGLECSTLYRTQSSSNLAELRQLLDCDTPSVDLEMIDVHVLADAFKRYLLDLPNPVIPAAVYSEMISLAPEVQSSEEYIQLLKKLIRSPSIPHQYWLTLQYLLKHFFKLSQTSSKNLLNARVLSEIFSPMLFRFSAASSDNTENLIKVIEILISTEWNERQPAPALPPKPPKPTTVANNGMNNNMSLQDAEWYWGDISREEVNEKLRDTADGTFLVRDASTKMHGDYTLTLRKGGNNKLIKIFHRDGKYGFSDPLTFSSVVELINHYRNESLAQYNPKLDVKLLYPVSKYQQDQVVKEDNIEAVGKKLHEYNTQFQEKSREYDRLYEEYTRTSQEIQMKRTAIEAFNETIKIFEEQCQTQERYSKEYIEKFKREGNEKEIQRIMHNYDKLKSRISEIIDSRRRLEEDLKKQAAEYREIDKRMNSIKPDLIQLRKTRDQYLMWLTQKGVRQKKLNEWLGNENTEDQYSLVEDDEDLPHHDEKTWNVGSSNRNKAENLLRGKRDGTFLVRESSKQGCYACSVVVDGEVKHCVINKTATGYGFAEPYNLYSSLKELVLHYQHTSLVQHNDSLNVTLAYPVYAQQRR
Text: (b)(i) In Vitro PI3K Enzyme Assay

Serine 473 in Akt = assay: In vitro phospho-Ser473 Akt assay, Test (c); format: cell-based; conditions: MDA-MB-468 human breast adenocarcinoma cells, 2 hours; read-out: IC50 versus Serine 473 in Akt, Test (c)
Procedure: (c) In Vitro Phospho-SeR473 Akt Assay
This assay determines the ability of test compounds to inhibit phosphorylation of Serine 473 in Akt as assessed using Acumen Explorer technology (Acumen Bioscience Limited), a plate reader that can be used to rapidly quantitate features of images generated by laser-scanning.
A MDA-MB-468 human breast adenocarcinoma cell line (LGC Promochem, Teddington, Middlesex, UK, Catalogue No. HTB-132) was routinely maintained at 37° C. with 5% CO2 up to a confluency of 70-90% in DMEM containing 10% heat-inactivated FCS and 1% L-glutamine.
For the assay, the cells were detached from the culture flask using ‘Accutase’ (Innovative Cell Technologies Inc., San Diego, Calif., USA; Catalogue No. AT104) using standard tissue culture methods and resuspended in media to give 1.7×10^5 cells per mL. […]
All subsequent aspiration and wash steps were carried out using a Tecan 96 well plate washer (aspiration speed 10 mm/sec). […] An aliquot of PBS (50 μl) was added to each well and the plates were sealed with black plate sealers and the fluorescence signal was detected and analysed.
Fluorescence dose response data obtained with each compound were analysed and the degree of inhibition of Serine 473 in Akt was expressed as an IC50 value.

T1 sequence (P42345 1362-2549): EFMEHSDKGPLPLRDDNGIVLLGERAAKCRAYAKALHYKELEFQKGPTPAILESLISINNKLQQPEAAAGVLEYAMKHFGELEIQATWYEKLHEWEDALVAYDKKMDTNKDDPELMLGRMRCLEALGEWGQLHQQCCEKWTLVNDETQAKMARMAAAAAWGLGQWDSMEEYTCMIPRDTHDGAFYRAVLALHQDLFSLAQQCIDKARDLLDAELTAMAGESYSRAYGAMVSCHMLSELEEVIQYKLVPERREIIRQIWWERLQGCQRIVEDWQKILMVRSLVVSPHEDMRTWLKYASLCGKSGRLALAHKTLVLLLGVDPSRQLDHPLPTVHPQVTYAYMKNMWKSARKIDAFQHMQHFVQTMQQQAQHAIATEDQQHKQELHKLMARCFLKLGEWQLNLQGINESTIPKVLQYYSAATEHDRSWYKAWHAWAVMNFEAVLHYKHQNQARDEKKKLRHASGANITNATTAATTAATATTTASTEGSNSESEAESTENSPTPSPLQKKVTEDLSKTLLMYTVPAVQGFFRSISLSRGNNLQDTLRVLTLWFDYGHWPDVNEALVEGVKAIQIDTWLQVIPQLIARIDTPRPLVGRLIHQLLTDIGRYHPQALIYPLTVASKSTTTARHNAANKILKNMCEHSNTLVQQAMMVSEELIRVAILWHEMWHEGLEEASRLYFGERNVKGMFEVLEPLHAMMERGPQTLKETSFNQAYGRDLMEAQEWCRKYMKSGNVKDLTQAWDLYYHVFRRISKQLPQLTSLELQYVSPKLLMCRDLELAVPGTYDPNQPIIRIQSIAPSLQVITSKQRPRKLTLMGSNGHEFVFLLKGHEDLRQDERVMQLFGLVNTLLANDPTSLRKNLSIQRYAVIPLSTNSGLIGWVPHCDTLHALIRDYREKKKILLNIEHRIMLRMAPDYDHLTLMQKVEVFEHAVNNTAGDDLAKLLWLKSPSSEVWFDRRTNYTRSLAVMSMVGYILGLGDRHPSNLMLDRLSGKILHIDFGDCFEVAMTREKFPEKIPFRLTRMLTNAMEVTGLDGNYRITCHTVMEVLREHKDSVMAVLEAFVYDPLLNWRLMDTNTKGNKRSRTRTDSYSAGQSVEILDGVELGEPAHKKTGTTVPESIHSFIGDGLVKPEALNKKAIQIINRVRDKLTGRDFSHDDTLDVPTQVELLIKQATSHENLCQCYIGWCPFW

- IC50 (mTOR kinase; individual values, measured twice, read-out: IC50 versus mTOR kinase, Test (a)(i)): 2.46 µM and 1.64 µM
- IC50 (mTOR kinase; recombinant FLAG-tagged mTOR (1362-2549), ATP 20 μM, read-out: Test (a)(i) IC50): 2 µM
- IC50 (p110α Type Ia human PI3K): 93.3 µM and 51.6 µM
- IC50 (Serine 473 in Akt): 7.77 µM
SMILES: CN(C)CC(=O)Nc1ccc(-c2nc(CS(C)(=O)=O)cc(N3CCOCC3)n2)cc1 [Example 5p, 2-dimethylamino-N-[4-[4-(methylsulfonylmethyl)-6-morpholin-4-yl-pyrimidin-2-yl]phenyl]acetamide]
